Experimental data reported in patent publication US9476030B2, “Self-renewing endodermal progenitor lines generated from human pluripotent stem cells and methods of use thereof” (The Children's Hospital of Philadelphia, priority 2011, dated 2016).

Columns and labels:
Type in all cases: cell-based, human
H9-EP cells [1] = assay: EP cell maintenance: cell number / cell growth under various media conditions; settings: for proliferation of EP cells (total cell number after 7-day expansion): FIG. 4B
Experimental: (§1) FIG. 4. Cytokine Requirements and Critical Signaling Pathways for EP Cell Maintenance and Differentiation. […] In each condition, one of the four cytokines was omitted or inhibitors of signaling pathways were added. The H9-EP cell line was grown for 1 week in optimal EP Basic Media (BASIC) or in the absence of BMP4, or bFGF or VEGF. (A) Flow cytometric analyses of SOX17 versus PDX1, or SOX17 versus FOXA1 are shown. […] (C-D) To evaluate the role of TGF signaling in EP cell maintenance and differentiation, the small molecule inhibitor SB431542 was added to EP media. (C) H9-EP cells were cultured in normal EP media (BASIC) or in EP media supplemented with SB431542 (6 M) either in the presence (+SB) or the absence of BMP4 (−BMP+SB). Cells were harvested at day 6. Flow cytometric analyses of SOX17 versus FOXA1 are shown. (D) H9-EP cells were cultured in the presence (SB, red circles) or the absence (BASIC, blue squares) of SB431542 for 3 passages and cell growth analyzed by cell counts at each passage. […] Cells were harvested at day 14 of differentiation, and were compared to those derived from SB-untreated group (BASIC). Flow cytometric analyses of C-peptide versus Glucagon are shown.
Cells were fed every two days, and were split at 1×10^6/58 cm^2 every 6 days by trypsinization. The small molecule inhibitors PD0325901 (Sebolt-Leopold et al., 2004; Ying et al., 2008), PD173074 (Mohammadi et al., 1998) and SB431542 (Laping et al, 2002; Inman et al., 2002) were purchased from Cayman Chemicals and Stemgent, respectively.

H9-EP cells [2] = assay: Flow cytometric analysis of SOX17 / PDX1 / FOXA1 in EP cells under various media conditions; set-up: SOX17 expression in EP cells: dose or concentration left out as unconfirmed
Experimental: as §1
Single cell suspensions were obtained by dissociating day 5 transient endoderm, EP cell cultures, or EP cell differentiation cultures with 0.25% trypsin at 37° C. for 3-5 minutes. Cell surface antigen staining was performed in IMDM with 10% fetal calf serum. For intracellular staining, cells were fixed with 1.6% paraformaldehyde (Electron Microscopy Sciences) at 37 C for 20 minutes, and then washed twice with PBS+1% BSA. The fixed cells were permeabilized and stained in 1× Permeabilization Wash Buffer (BioLegend, 421002). The stained cells were analyzed with the BD FACS Canto II Flow Cytometer (BD Biosciences), and the data was analyzed using the Flowjo software (TreeStar). The sources and concentrations of primary, secondary antibodies and isotype controls are listed below.

H9-EP and iPS2-EP cells = assay: Pancreatic differentiation of EP cells after culture with SB431542; settings: EP cells cultured with SB431542 for 5 days, then differentiated, day 14, FIG. 4E
Experimental: FIG. 4. Cytokine Requirements and Critical Signaling Pathways for EP Cell Maintenance and Differentiation. […] In each condition, one of the four cytokines was omitted or inhibitors of signaling pathways were added. The H9-EP cell line was grown for 1 week in optimal EP Basic Media (BASIC) or in the absence of BMP4, or bFGF or VEGF. (A) Flow cytometric analyses of SOX17 versus PDX1, or SOX17 versus FOXA1 are shown. […] (C-D) To evaluate the role of TGF signaling in EP cell maintenance and differentiation, the small molecule inhibitor SB431542 was added to EP media. […] Cells were harvested at day 6. Flow cytometric analyses of SOX17 versus FOXA1 are shown. […] Cells were harvested at day 14 of differentiation, and were compared to those derived from SB-untreated group (BASIC). Flow cytometric analyses of C-peptide versus Glucagon are shown. […] (2011), was modified by omitting the first step, and by adding-secretase inhibitor X (Calbiochem, 2 M) from day 8 to day 12 of differentiation, as well as by adding human insulin (Sigma, 800 pM) and nicotinamide (Sigma, 10 mM) from day 10 and onwards. […] Mouse Wnt3a was supplemented to the step 2 media at 3 ng/ml. From day 10 and onwards, the medium was alternated every day between high dextrose (60 mM) and low dextrose (20 mM). […] Insulin secretion was calculated based on the total cell number and the percentage of c-peptide+ cells of each experiment. […]

[3] = inhibitor of FGF/Ras/MEK pathway added to EP media
[4] = withdrawal of the cytokine, within one week, FIG. 4A
[5] = withdrawal of the cytokine from EP basic media

## CCN(CC)CCCCNc1ncc2cc(-c3cc(OC)cc(OC)c3)c(NC(=O)NC(C)(C)C)nc2n1 [PD173074]
H9-EP cells [1]; [3]
  proliferation of EP cells (total cell number after 7-day expansion): reduced proliferation dramatically

## BMP4: human cytokine in EP basic medium (50 ng/ml)
H9-EP cells [2]; [4]
  PDX1 expression in EP cells: up-regulation of PDX1
  SOX17 expression in EP cells: almost complete loss of SOX17 expression

## VEGF
H9-EP cells [1]; [5]
  proliferation of EP cells (total cell number after 7-day expansion): significant decrease in proliferation

## bFGF: human cytokine in EP basic medium (10 ng/ml)
H9-EP cells [1]; [5]
  proliferation of EP cells (total cell number after 7-day expansion): reduced proliferation dramatically

## O=C(NOC[C@H](O)CO)c1ccc(F)c(F)c1Nc1ccc(I)cc1F [PD0325901]
H9-EP cells [1]; [3]
  proliferation of EP cells (total cell number after 7-day expansion): reduced proliferation dramatically

## NC(=O)c1ccc(-c2nc(-c3ccc4c(c3)OCO4)c(-c3ccccn3)[nH]2)cc1 [SB431542]
H9-EP cells [2]; EP media supplemented with SB431542, harvested at day 6, FIG. 4C
  SOX17 expression in EP cells: completely abolished SOX17 expression
H9-EP cells [1]; SB431542 added to EP media, FIG. 4D
  proliferation of EP cells (relative cell growth over 3 passages): drastically suppressed proliferation
H9-EP and iPS2-EP cells
  differentiation of EP cells into pancreatic β-cells: inhibited differentiation into pancreatic β-cells

## EGF: human cytokine in EP basic medium (10 ng/ml) (NSDSECPLSHDGYCLHDGVCMYIEALDKYACNCVVGYIGERCQYRDLKWWELR; UniProt P01133 971-1023, looked up)
H9-EP cells [1]; [5]
  proliferation of EP cells (total cell number after 7-day expansion): significant decrease in proliferation
